Results on seven molecules are retold here after article PMC6600671, “Design and Synthesis of Indoleamine 2,3-Dioxygenase 1 Inhibitors and Evaluation of Their Use as Anti-Tumor Agents” (Molecules, 2019).

“And” between values parts separate entries of the source, which are not always exact repeats. Equal entries are not always repeated. “Also recorded” adds a separate entry of the source. Where two headings read alike, the source gives them in different places.

The test system of one data set is IDO1. To be noted: cited from earlier work.
A further data set has as its target rhIDO1 (Homo sapiens, UniProt P14902). In words: Enzyme-based IDO1 activity assay (kynurenine absorbance at 492 nm). It is filed as biochemical. To be noted: rhIDO1 0.05 μM, 37 °C, 45 min; read-out: IDO IC50. The method, then: (§1) The compounds on IDO1 or TDO activity were determined as follows: A standard reaction mixture (100 μL) containing 100 mM potassium phosphate buffer (pH 6.5), 40 mM ascorbic acid (neutralized with NaOH), 200 μg/mL catalase, 20 μM methylene blue and 0.05 μM rhIDO1 or rhTDO was added to the solution containing the substrate L-tryptophan and the test sample at a determined concentration. […] The yellow pigment derived from kynurenine was measured at 492 nm using a SYNERGY-H1 microplate reader (Biotek Instruments, Inc., Winooski, VT, USA). IC50 was analyzed using the GraphPad Prism 8.0 software (GraphPad Software, San Diego, CA, USA).

In a further data set the target is rhTDO (Homo sapiens, UniProt P48775). In words: Enzyme-based TDO activity assay (kynurenine absorbance at 492 nm). It is filed as biochemical. The method, then:
as §1

A further data set deals with MCF7. Description: Cell viability MTT assay, 72 h. To be noted: Homo sapiens, at 50 μM, shown when calculated IC50 >50 μM, read-out: MCF7 inhibition rate (%) at 50 μM. It counts as cell-based. As to the method:
(§2) B16-F10 mouse melanoma cells, NCI-H460 human lung cancer cell line and MCF7 were obtained from American Type Culture Collection (ATCC). All the cell lines were cultured with Dulbecco’ modified Eagle’s medium (DMEM) (Invitrogen Corporation, Waltham, MA, USA) supplemented with 10% fetal bovine serum (FBS) (Hyclone, Waltham, MA, USA) and 1% penicillin streptomycin (Invitrogen) at 37 °C in 5% CO2.
(§3) The in vitro inhibitory effects of the compounds were measured by MTT assay. Briefly, different kinds of cells were plated in 96-well plates at a density of 2000/well. After attachment for overnight at 37 °C, the cells were treated with the compounds at various concentrations. After 72 h culture, the MTT reagent was added to each well, and plates were incubated for another 4 h at 37 °C. Then, the blue-purple crystal formamidine was dissolved in DMSO after discarding the supernatant. Samples were measured using microplate reader at a wavelength of 570 nm (Biotek Instruments, Inc., Winooski, VT, USA). IC50 values were calculated with GraphPad Prism 8.0 software.

The subject of data set [1] is NCI-H460 human lung cancer cell line. Description: Cell viability MTT assay, 72 h. It counts as cell-based. The conditions noted are these: at 50 μM, shown when calculated IC50 >50 μM, read-out: H460 inhibition rate (%) at 50 μM. As to the method:
as §2, §3

A short description of data set [2]: Single dose pharmacokinetic study in male ICR mice. It is filed as in vivo. The conditions noted are these: for half-life: read-out: t1/2β (converted). As to the method:
The animal Care and Welfare Committee of Institute of Materia Medica, Chinese Academy of Medical Sciences approved all animal care, housing, and laboratory procedures. Male ICR mice were used in the single dose pharmacokinetic studies. Compound DX-03-12 was prepared as 3 mg/mL suspension with 0.5% CMC (containing 0.3% Tween 80) for oral use and was formulated as 3 mg/mL solution with 5% DMSO in saline for intravenous injection. Twenty mice were divided into two groups, 10 in each group. After fasting 12 h with free access to water, mice were treated with a 3 mg/kg i.v. or 30 mg/kg oral dose of compound DX-03-12. Blood samples (50 µL) were collected at 5, 15, 30 min, 1, 2, 4, 6, 8, 12 and 24 h after oral administration and 2, 5, 15, 30 min, 1, 2, 4, 6, 8, 12 and 24 h after intravenous injection. After centrifugation, the plasma samples (15 µL) were precipitated by five volumes of acetonitrile. The supernatant were analyzed by liquid chromatography/tandem mass spectrometry (Agilent Technologies, Santa Clara, CA, USA) with a Zobax C18 column (50 mm × 2.1 mm, 3.5 µm). Compound detection was performed with the mass spectrometer in MRM (multiple reaction monitoring, Agilent Technologies, Santa Clara, CA, USA) negative ionization mode. The selected reaction monitoring transitions were m/z 348.5→160 for compound DX-03-12. The pharmacokinetic parameters were calculated with WinNonlin software V6.3 using non-compartmental analysis (Pharsight Corporation, Mountain View, CA, USA).

The test system of data set [3] is mouse melanoma cells B16F10. In words: In vivo anti-tumor efficacy, B16F10 subcutaneous xenograft model. Set-up: species or system mice. The conditions noted are these: 60 mg/kg/day, 19 days treatment. As to the method:
C57BL/6 mice were obtained from Beijing Vital River Laboratory Animal Technology Co., Ltd. (Beijing Vital River Laboratory Animal Technology Co., Ltd, Beijing, China). Studies involving mice were approved by the Experimental Animal Management and Welfare Committee at the Institute of Materia Medica, Peking Union Medical College.
(§4) The mouse melanoma cells B16F10 were cultured and harvested in saline. At day 0 of the experiment, 1 × 10^6 cells were injected subcutaneously into mice, and treatment was initiated at day 1 following the mice enrolled randomly in control and experimental groups. For control group, 0.5% CMCNa was orally administered every day. Compound DX-03-12 was dissolved in 0.5% CMC for oral treatment or dissolved in saline for intraperitoneal treatment. When the mice were sacrificed, the tumors were stripped and weighted. […] The statistical analysis was performed with GraphPad Prism 8.0 software and the significance level was evaluated with a one-way ANOVA model.

Data set [4] can be described thus: Body weight and white blood cells in B16F10 xenograft mice. It is filed as in vivo. The conditions noted are these: 30 or 60 mg/kg/day oral or i.p. As to the method: as §4
The next data set deals with pathway. To be noted: reported value; cited from earlier work.
[5] abbreviates: Figure 1, reported IDO1 inhibitors.
[6] abbreviates: mouse, plasma, PO 30 mg/kg, male ICR mice.
Where [7] appears, read: mouse, plasma, iv 3 mg/kg, male ICR mice.

Chain of rhTDO (P48775 whole entry): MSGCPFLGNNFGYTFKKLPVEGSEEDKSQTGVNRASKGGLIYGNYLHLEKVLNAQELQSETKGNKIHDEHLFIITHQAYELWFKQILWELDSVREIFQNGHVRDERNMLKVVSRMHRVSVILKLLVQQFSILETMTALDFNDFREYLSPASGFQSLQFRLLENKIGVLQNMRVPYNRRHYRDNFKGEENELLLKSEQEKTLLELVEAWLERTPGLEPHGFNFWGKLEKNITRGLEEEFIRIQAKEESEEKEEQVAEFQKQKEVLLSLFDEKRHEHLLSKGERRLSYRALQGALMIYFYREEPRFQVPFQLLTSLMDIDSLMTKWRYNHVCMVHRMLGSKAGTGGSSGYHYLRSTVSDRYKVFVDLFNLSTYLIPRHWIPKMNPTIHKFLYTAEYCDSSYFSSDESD
Chain of rhIDO1 (P14902 whole entry): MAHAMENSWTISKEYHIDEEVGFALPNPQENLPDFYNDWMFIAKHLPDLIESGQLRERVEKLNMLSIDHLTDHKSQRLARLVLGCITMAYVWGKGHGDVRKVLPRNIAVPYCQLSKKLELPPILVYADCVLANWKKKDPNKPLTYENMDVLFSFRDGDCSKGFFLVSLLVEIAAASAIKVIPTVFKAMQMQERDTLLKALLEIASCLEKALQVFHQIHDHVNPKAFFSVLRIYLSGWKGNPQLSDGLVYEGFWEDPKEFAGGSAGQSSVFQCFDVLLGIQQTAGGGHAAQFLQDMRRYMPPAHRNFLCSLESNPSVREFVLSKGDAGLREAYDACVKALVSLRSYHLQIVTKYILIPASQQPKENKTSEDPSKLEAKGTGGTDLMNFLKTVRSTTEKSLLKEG

Regarding `Cc1ccc(NC(=O)Nc2cc([C@H]3C[C@H]3C(=O)O)ccc2N(CC(C)C)CC(C)C)cc1` [BMS-978587], the IC50 (commonly the concentration needed to halve the response being measured) in the data set with IDO1 (setting [5]) was 7.1 nM.

As for `C[C@@H](C(=O)Nc1ccc(Cl)cc1)C1CCC(c2ccnc3ccc(F)cc23)CC1` (stereo partly shown) [BMS-986205], the IC50 in the data set on IDO1 (setting [5]) was 1.7 nM.

Regarding `O=S(=O)(NCCCOc1ccccc1-c1cnc[nH]1)C(F)(F)F` [DX-03-12, N-(3-(2-(1H-imidazol-5-yl)phenoxy)propyl)-1,1,1-trifluoromethane sulfonamide], the IC50 at rhIDO1 worked out at 300 nM. Further, at rhTDO, the “TDO inhibition, in words” value is “marginal”. Besides, the inhibition (commonly how much of the control response was suppressed) at 50 µM is 36.4% at rhTDO (at 50 μM, shown when calculated IC50 >50 μM, read-out: TDO inhibition rate (%) at 50 μM); 6.6% in the data set on MCF7; 19.3% in [1]. For the same molecule, the t1/2β in data set [2] (PO 30 mg/kg, male ICR mice, 30 mg/kg) was 4.6 h and 4.61 h. In [2] (iv 3 mg/kg, male ICR mice, 3 mg/kg), the Vss (as a rule, the apparent volume that relates the amount in the body to the concentration in plasma or blood) worked out at 10.1 L/kg. Also, in [2] (iv 3 mg/kg, hepatic blood flow 90 mL/min/kg), the “plasma clearance as % of mouse hepatic blood flow” value is about 36%. In data set [2] (male, ICR, mouse, plasma, iv, 3 mg/kg, iv 3 mg/kg, male ICR mice, read-out: Vss), the Vd is 10 L/kg. In addition, the half-life in data set [2] (male, ICR, mouse, plasma, iv, 3 mg/kg, iv 3 mg/kg, male ICR mice) was 3.49 h; in data set [2] (male, ICR, mouse, plasma, po, 30 mg/kg, PO 30 mg/kg, male ICR mice), about 4.6 h. In addition, the bioavailability (usually the share of a dose that reaches the circulation, judged against a reference dose that is usually intravenous) in [2] (male, ICR, mouse, plasma, oral, 30 mg/kg, PO 30 mg/kg vs iv 3 mg/kg, male ICR mice, read-out: F% (oral bioavailability)) was about 96%. Further, the AUC(0-inf) (in general, total exposure, with the tail of the curve extrapolated) in data set [2] (setting [6]) amounted to 13100 ng·h/mL; in data set [2] (setting [7]), 1500 ng·h/mL. Further, the AUC(0-t) (in general, the area under the concentration-time curve up to a stated or last time point) stood at 12900 ng·h/mL in data set [2] (setting [6]) and 1350 ng·h/mL in data set [2] (setting [7]). For the same molecule, the Tmax (commonly the time at which the peak concentration occurs) in data set [2] (setting [6]) turned out to be 1 h; in [2] (setting [7]), 0.033 h. The clearance (commonly a measure of how efficiently the substance is removed, as volume per time) in data set [2] (setting [7]) was 33.3 mL/min/kg. Also, the Cmax (commonly the peak of the concentration-time curve) in data set [2] (mouse, PO 30 mg/kg, male ICR mice, plasma) stood at 2960 ng/mL; in data set [2] (mouse, iv 3 mg/kg, male ICR mice, plasma), 2140 ng/mL. The “decrease in tumor weight (tumor growth inhibition) vs control” value in data set [3] (i.p.) is listed as 72.3%; in [3] (oral), 72.2%. Further, the “effect on body weight of the mice” value in [4] was “no obvious weight loss; also recorded: no obvious effect”. Also, in data set [4], the “effect on peripheral white blood cells” value is “no obvious effect”.

`NS(=O)(=O)NCCNc1nonc1C(=NO)Nc1ccc(F)c(Br)c1` [INCB024360]: the IC50 with IDO1 (setting [5]) was […].

`O=C1CC(c2c[nH]c3ccc(F)cc23)C(=O)N1` (stereo not shown) [PF-0684003, 3-(5-Fluoro-1H-indol-3-yl)pyrrolidine-2,5-dione]: the IC50 in the data set on IDO1 (reported value) is […].

Consider `O=C1c2ccccc2-n2c1nc1ccccc1c2=O` [Tryptanthrin], for which, in the data set on IDO1 (setting [5]), the IC50 is 534 nM.

Consider `Cn1cc(C[C@@H](N)C(=O)O)c2ccccc21` [indoximod], for which, in the data set on pathway, the IC50 is 450 nM.
